From paper PMC10747602, “Dose Response, Dosimetric, and Metabolic Evaluations of Replacement PFAS Perfluoro-(2,5,8-trimethyl-3,6,9-trioxadodecanoic) Acid (HFPO-TeA)” (Toxics, 2023)

System: Thyroid hormones T3, rT3, and T4
Assay: Plasma thyroid hormone assessment
Assay type: in vivo, Sprague Dawley rats
Details: 5 days
Protocol: Information on the chemicals used in the plasma thyroid hormone analysis can be found in Supplementary Text S2 and Table S3. Thyroid hormones T3, rT3, and T4 were extracted from 20 µL of plasma (5 days) following the procedure outlined by O’Shaughnessy et al.. Briefly, plasma was spiked with internal standards ^13C6-T3, ^13C6-rT3, and ^13C6-T4, and extracted using Evolute CX SPE plates (10 mg, 1 mL, Biotage, Charlotte, NC, USA). Extracts were eluted using a positive pressure manifold. Refer to Supplementary Text S2 for complete details of the extraction method.
Targeted, quantitative analysis of the thyroid hormone levels was conducted using a 6500+ QTRAP liquid chromatography/mass spectrometer system (Sciex, Framingham, MA, USA) operated in positive ion multiple reaction monitoring (MRM) scan mode with electrospray ionization (ESI). […] Gradient elution was obtained using eluent A (0.1% formic acid; FA (aqueous)) and eluent B (MeOH with 0.1% FA). The gradient used is found in Table S4. Additional instrument parameters can be found in Table S5 and monitored transitions in Table S6. Statistical analysis is described in Supplementary Text S3. […]
Support ing Text S1: Chemicals
Chemicals used for solvent and mobile phases include methanol (MeOH), water (H2O), and acetonitrile (ACN) which were LC/MS grade and purchased from Honeywell Burdick & Jackson (Charlotte, NC, USA). Ethanol (EtOH) used as a solvent was ACS grade and purchased from Honeywell Burdick & Jackson. Ammonium formate (BioUltra purity) and ammonium acetate (99% pure) were used as mobile phase additives and obtained from Millipore Sigma (St. Louis, MO, USA). Formic acid (FA; 97.5% pure) was also used as an additive; it was purchased from Honeywell Fluka (Charlotte, NC, USA).
Detailed information for chemicals used for each analysis may be found in Table S1.
Support ing Text S2: Thyroid Hormone Chemicals and Analysis
3,3’,5-Triiodothyronine (Chemical Abstract Service Registry Number (CASRN) 6893-02-3 | U.S.
Environmental Protection Agency (U.S. EPA) Distributed Structure-Searchable Toxicity (DSSTox) substance identifier (DTXSID) DTXSID8023216 | T3; ˃ 99% pure), mass-labeled 3,3’,5-triiodothyronine […]
98% pure), mass-labeled 3,3’,5’-triiodothyronine hydrochloride (13C6-rT3; ˃ 99% pure), L-thyroxine […]
pure) were purchased from Cerilliant Corporation (Round Rock, Texas, USA).
Briefly, a 20 µL aliquot of plasma from each sample was loaded into individual wells of a 96-well collection plate. They were spiked with 5 µL of a 40 ng/mL 13C6-T3, 13C6-rT3 and 13C6-T4 mixed solution followed by 1N hydrochloric acid (HCl) (20 µL) (36.5-38%, Fisher Scientific. Waltham, MA, USA), H2O (100 µL), and a 50:50 H2O/ACN solution (vol/vol) (60 µL) containing 0.1% formic acid (FA). Samples were vortexed, incubated at 37 °C for 2 hours, and brought to room temperature. They were diluted with an aqueous 0.1% acetic acid solution (LC/MS grade, Honeywell Fluka) and vortexed. The SPE well plates (Evolute CX, 96-well SPE plate, 10 mg, 1 mL, Biotage, Charlotte, NC, USA), processed with a positive pressure manifold, were conditioned with methanol followed by an aqueous 0.1% acetic acid solution prior to sample loading with low pressure. Plate wells were washed with 0.1% acetic acid followed by methanol. Thyroid hormones were eluted into a collection plate with 2.5% ammonium hydroxide (NH4OH) (28-30%, Thermo Fisher Scientific, Waltham, MA, USA) in methanol. Extracts were then evaporated to dryness with nitrogen using a Turbovap (Biotage) then reconstituted in 100 µL of 25:75 ACN/H2O (vol/vol) with 0.1% acetic acid. Extracts were stored in amber micro-sampling vials (Agilent Technologies, Santa Clara, CA, USA) prior to instrumental analysis.
Samples were quantitated against matrix-matched calibration curves containing a minimum of 5 points spanning the range 0.005 – 25.00 ng/mL. Calibration standards were made by combining T3, rT3, and T4 analytes with the 13C6-T3, 13C6-rT3, and 13C6-T4 internal standards then with commercial rat […]

O=C(O)C(F)(OC(F)(F)C(F)(OC(F)(F)C(F)(OC(F)(F)C(F)(F)C(F)(F)F)C(F)(F)F)C(F)(F)F)C(F)(F)F (stereo not drawn) [HFPO-TeA, perfluoro-(2,5,8-trimethyl-3,6,9-trioxadodecanoic) acid]
rT3 Conc. in plasma (0.3 mg/kg/day, F, individual rats, LOQ 0.005 ng/mL): < LOQ | rT3 Conc. in plasma (0.3 mg/kg/day, M, individual rats, LOQ 0.005 ng/mL): < LOQ | rT3 Conc. in plasma (0.9 mg/kg/day, F, individual rats, LOQ 0.005 ng/mL): < LOQ | rT3 Conc. in plasma (0.9 mg/kg/day, F, mean ± SD of replicates above LOQ (0.005 ng/mL)): <LOQ | rT3 Conc. in plasma (0.9 mg/kg/day, M, individual rats, LOQ 0.005 ng/mL): < LOQ | rT3 Conc. in plasma (0.9 mg/kg/day, M, mean ± SD of replicates above LOQ (0.005 ng/mL)): < LOQ | rT3 Conc. in plasma (2.3 mg/kg/day, F, individual rats, LOQ 0.005 ng/mL): < LOQ | rT3 Conc. in plasma (2.3 mg/kg/day, M, individual rats, LOQ 0.005 ng/mL): < LOQ | rT3 Conc. in plasma (6.3 mg/kg/day, F, individual rats, LOQ 0.005 ng/mL): < LOQ | rT3 Conc. in plasma (6.3 mg/kg/day, M, individual rats, LOQ 0.005 ng/mL): < LOQ | rT3 Conc. in plasma (17 mg/kg/day, F, individual rats, LOQ 0.005 ng/mL): < LOQ | rT3 Conc. in plasma (17 mg/kg/day, M, individual rats, LOQ 0.005 ng/mL): < LOQ
